Source: paper PMC5855685 (International Journal of Molecular Sciences, 2018)
Values after ≈ are worked out from the molar mass of the structure shown. Where two headings read alike, the source gives them in different places.

Tests used:
[1] = test system: Hepatitis B virus; parameters: method as in PMID 19463857; details: cited from earlier work
[2] = test system: E. coli (Gram−); assay: Antimicrobial activity, MIC on Müeller Hinton Agar; format: cell-based, Escherichia coli; details: for MIC: Escherichia coli, read-out: MIC (minimal inhibitory concentration)
Experimental: (§1) The antimicrobial activity of studied compounds was tested against Escherichia coli, Bacillus subtilis, Staphylococcus epidermidis, Streptococcus pyogenes and antifungal activities against Candida sp. The microorganisms used in the experiment were obtained from the American Type Culture Collection-ATCC. Antimicrobial activity was measured as a minimal inhibitory concentration (MIC) with […] Hinton Agar (MHA). Serial two-fold dilutions of chemicals, ranging from 5000, 2500, 1250, 625 to 312, μg/mL were prepared. After the inoculation of microorganisms on MHA plates with certain tested chemical concentrations, the plates were incubated at 37 °C for bacteria and at 30 °C for Candida sp. for 24 and 48 h, respectively. Plates containing sterile water were used as controls. Minimum three repetitions were run for each assay. Ampicillin and kanamycin were used as a reference antibiotics.

[3] = test system: multi-drug resistant Staphylococcus aureus; parameters: method as in PMID 26528244; details: via inhibition of the activity of sortase A; cited from earlier work
[4] = test system: Staphylococcus Epidermidis (Gram+); assay: Antimicrobial activity, MIC on Müeller Hinton Agar; format: cell-based; details: for MIC: read-out: MIC (minimal inhibitory concentration)
Experimental: as §1

[5] = test system: Streptococcus Pyogenes (Gram+); assay: Antimicrobial activity, MIC on Müeller Hinton Agar; format: cell-based; details: for MIC: read-out: MIC (minimal inhibitory concentration)
Experimental: as §1

[6] = test system: Candida sp.; assay: Antifungal activity, MIC on Müeller Hinton Agar; format: cell-based; details: for MIC: Candida, read-out: MIC (minimal inhibitory concentration)
Experimental: as §1

[7] = test system: Bacillus sp. (Gram+); assay: Antimicrobial activity, MIC on Müeller Hinton Agar; format: cell-based, Bacillus subtilis; details: for MIC: read-out: MIC (minimal inhibitory concentration)
Experimental: as §1

[8] = test system: Stenotrophomonas maltophilia, Bacillus careus, Enterococcus faecalis, Bacillus subtilis, Streptococcus pneumoniae; parameters: method as in PMID 23509719, PMID 21483731, PMID 22417510; details: range over listed bacteria; cited from earlier work
[9] = test system: E. coli, Bacillus sp., Staphylococcus sp., Streptococcus pyogenes; assay: Antibacterial activity, MIC as summarised in the abstract; format: cell-based; details: summary over tested bacteria (abstract)
Experimental: as §1

[10] = DPPH radical scavenging assay; details: methanolic solution, 40 μM DPPH, 1 h, 23 °C, 516 nm
Experimental: Particular volumes of chlorogenic acid and chlorogenate solutions were added into the test tubes and diluted with methanol to obtain a series of solutions at the concentrations 10–0.1 μM (final volume 1 mL). Then, 2 mL of DPPH was added to each tube, vortexed and incubated in the darkness for 1 h at 23 °C. […] The absorbance of the mixture was measured at 516 nm against methanol as the blank using Agilent Carry 5000 spectrophotometer. The control sample—2 mL of DPPH solution and 1 mL of methanol. […] Then, the concentration of the tested substances was plotted against the % inhibition and the IC50 values were read from the scavenging curves. […] The IC50 parameter was also obtained for butylated hydroxyanisol (BHA), butylated hydroxytoluene (BHT) and L-ascorbic acid and compared with those ones calculated for studied compounds.

[11] = FRAP (ferric reducing antioxidant power) assay; details: Fe2+ equivalents
Experimental: Ferric reducing antioxidant activity was determined in FRAP assay. In order to prepare the FRAP reagent the following reagents: 0.3 M acetate buffer (pH 3.6), 10 mM TPTZ (in 40 mM HCl) and 20 mM FeCl3·6H2O (in water) were mixed in a volumetric ratio 10:1:1 directly before analyses. Then, the FRAP reagent (3 mL) was mixed with the tested substance (0.4 mL; final concentrations C = 2.5 and 5.0 μM). The absorbance was measured at 594 nm against blank (3 mL of FRAP and 0.4 mL of methanol) using an Agilent Carry 5000 spectrophotometer (CA, USA). Antioxidant activity was expressed as Fe^2+ equivalents [μM] using the calibration curve prepared over the range of 1000–20 μM concentration of FeSO4.

[12] = Pro-oxidant activity as rate of oxidation of trolox (H2O2 / horseradish peroxide); details: 100 μM trolox, 50 μM H2O2, pH 7, 25 °C, 272 nm
Experimental: Chlorogenic acid and chlorogenates were also tested for their pro-oxidative effect on trolox oxidation. The radicals of chlorogenic acid and chlorogenates are produced in their reaction with H2O2 catalysed by horse radish peroxide. Then the phenoxyl radicals react with trolox which undergoes oxidation to trolox radicals and then trolox quinones. Whereas the phenoxyl radical are transformed to phenolic compounds. The maximum absorption for trolox quinone is 272 nm. This is a general procedure to study the pro-oxidant activity of phenolic compounds [54].
The pro-oxidant activity of the tested compounds were measured as the rate of oxidation of trolox according to the procedure described by Zeraik et al.. 100 μM trolox, 50 μM H2O2, 0.01 μM horseradish peroxide in phosphate buffer (pH = 7) and tested substances with a concentration from 0.05–0.35 μM were incubated at 25 °C. The measurement were conducted at 272 nm using an Agilent Carry 5000 spectrophotometer.

Compound	MIC (minimal inhibitory concentration) ([6]; MHA plates, 30 °C, 48 h)	EC50 [10]	FRAP Values C Fe2+ ([11]; Ccompound 5 µM)	MIC (minimal inhibitory concentration) ([2]; MHA plates, 37 °C, 24 h)	FRAP Values C Fe2+ ([11]; Ccompound 2.5 µM)	MIC (minimal inhibitory concentration) ([4]; MHA plates, 37 °C, 24 h)	MIC (minimal inhibitory concentration) ([5]; MHA plates, 37 °C, 24 h)	MIC (minimal inhibitory concentration) ([7]; MHA plates, 37 °C, 24 h)	also measured
O=C(/C=C/c1ccc(O)c(O)c1)O[C@@H]1C[C@](O)(C(=O)O)C[C@@H](O)[C@H]1O [5-CQA, 5-O-caffeoylquinic acid, reference compound]	> 14.11 mM	–	–	–	–	–	–	–	IC50 against Hepatitis B virus [1]: 0.4 µg/mL (≈ 1.13 µM); MIC ([2]; MHA plates, 37 °C, 24 h): 7.06 mM; MIC ([2]; value in brackets): 2500 µg/mL; IC50 [3]: 33.86 ± 5.55 µg/mL (≈ 95.6 µM); MIC ([4]; MHA plates, 37 °C, 24 h): > 7.06 mM; MIC ([4]; value in brackets): > 2500 µg/mL; MIC ([5]; MHA plates, 37 °C, 24 h): > 7.06 mM; MIC ([5]; value in brackets): > 2500 µg/mL; MIC ([6]; 48 h, MHA plates, 30 °C, 48 h): 14.1 mM; MIC ([6]; value in brackets): > 5000 µg/mL; MIC ([7]; MHA plates, 37 °C, 24 h): > 7.06 mM; MIC ([7]; value in brackets): > 2500 µg/mL; MIC [8]: 8 to 64 µg/mL; MIC [9]: 7.06 mM (≈ 2500 µg/mL)
CC1(C)S[C@@H]2[C@H](NC(=O)[C@H](N)c3ccccc3)C(=O)N2[C@H]1C(=O)O [Ampicillin, reference compound]	–	–	–	–	–	–	–	–	MIC ([2]; MHA plates, 37 °C, 24 h): 0.43 mM; MIC ([4]; MHA plates, 37 °C, 24 h): 0.57 mM; MIC ([5]; MHA plates, 37 °C, 24 h): 0.57 mM; MIC ([6]; 48 h, MHA plates, 30 °C, 48 h): 0.57 mM; MIC ([7]; MHA plates, 37 °C, 24 h): 0.57 mM
Cc1cc(C(C)(C)C)c(O)c(C(C)(C)C)c1 [BHT, butylated hydroxytoluene, reference compound]	–	52.8 ± 2.83 µM	69.66 ± 5.54 µM	–	–	–	–	–	–
O=C(/C=C/c1ccc(O)c(O)c1)O[C@@H]1C[C@](O)(C(=O)[O-])C[C@@H](O)[C@H]1O.[Cs+] [Cs 5-CQA, caesium chlorogenate]	˃9.58 mM	5.89 ± 1.57 µM	–	4.79 mM	80.47 ± 5.68 µM	˃4.79 mM	˃4.79 mM	˃4.79 mM	–
O=C(/C=C/c1ccc(O)c(O)c1)O[C@@H]1C[C@](O)(C(=O)[O-])C[C@@H](O)[C@H]1O.[K+] [K 5-CQA, potassium chlorogenate]	5.96 mM	5.32 ± 0.49 µM	132.00 ± 6.07 µM	5.96 mM	99.89 ± 7.05 µM	2.98 mM	˃5.96 mM	5.96 mM	time after which the oxidation of trolox finished ([12]; compound 0.25 μM): 40 min; time after which the oxidation of trolox finished ([12]; compound 0.35 μM): 20 min
NC[C@H]1O[C@H](O[C@H]2[C@H](O)[C@@H](O[C@H]3O[C@H](CO)[C@@H](O)[C@H](N)[C@H]3O)[C@H](N)C[C@@H]2N)[C@H](O)[C@@H](O)[C@@H]1O [Kanamycin, reference compound]	0.41 mM (≈ 199 µg/mL)	–	–	0.21 mM (≈ 102 µg/mL)	–	0.21 mM (≈ 102 µg/mL)	0.21 mM (≈ 102 µg/mL)	0.21 mM (≈ 102 µg/mL)	–
O=C1O[C@H]([C@@H](O)CO)C(O)=C1O [L-ascorbic acid, reference compound]	–	10.9 ± 0.53 µM	81.70 ± 4.23 µM	–	–	–	–	–	–
O=C(/C=C/c1ccc(O)c(O)c1)O[C@@H]1C[C@](O)(C(=O)[O-])C[C@@H](O)[C@H]1O.[Li+] [Li 5-CQA, lithium chlorogenate]	˃12.91 mM	5.28 ± 0.375 µM	–	6.46 mM	78.93 ± 4.23 µM	˃6.46 mM	˃6.46 mM	˃6.46 mM	time after which the oxidation of trolox finished ([12]; compound 0.35 μM): 20 min
O=C(/C=C/c1ccc(O)c(O)c1)O[C@@H]1C[C@](O)(C(=O)[O-])C[C@@H](O)[C@H]1O.[Na+] [Na 5-CQA, sodium chlorogenate]	˃12.40 mM	4.5 ± 0.36 µM	141.13 ± 5.78 µM	6.20 mM	103.08 ± 2.79 µM	˃6.20 mM	˃6.20 mM	˃6.20 mM	time after which the oxidation of trolox finished ([12]; compound 0.35 μM): 20 min
O=C(/C=C/c1ccc(O)c(O)c1)O[C@@H]1C[C@](O)(C(=O)[O-])C[C@@H](O)[C@H]1O.[Rb+] [Rb 5-CQA, rubidium chlorogenate]	5.27 mM	5.4 ± 0.68 µM	–	2.63 mM	86.70 ± 2.86 µM	5.27 mM	2.63 mM	5.27 mM	time after which the oxidation of trolox finished ([12]; compound 0.25 μM): 40 min
Cc1c(C)c2c(c(C)c1O)CCC(C)(C(=O)O)O2 (stereo not shown) [Trolox, reference compound]	–	8.25 ± 0.75 µM	70.85 ± 3.57 µM	–	–	–	–	–	–
